How the values were obtained:
[1] = Subcutaneous administration of C-peptide formulations in rats: C-peptide in serum; format: in vivo, Sprague-Dawley male rats; conditions: rat, sc, 75 nmole/kg as a common aqueous solution, within 2 h, data not shown, read-out: serum concentration of C-peptide
Method: About 1 ml of each sample was transferred to a plastic syringe with a Luer-lok Tip (Becton Dickinson), which then was sealed with a Combi Stopper (Braun). Prior to administration a 23G Microlance (Becton Dickinson) was connected to the syringe. Each syringe was weighed before and after administration to the animal.
Thirty Sprague-Dawley male rats with a body weight of about 300 g were divided into 5 groups of 6 animals to test the uptake of C-peptide in the formulations outlined above. […] The serum obtained by centrifugation was collected and stored at −80° C. until analysis. Determination of C-peptide in serum was performed by an automatic immunoassay system (AutoDELFIA™ C-peptide, Perkin Elmer, Wallac Oy, Turku, Finland), with a detection limit of 0.005 nM and a precision below 5%. To fit into the calibration curve, the samples were diluted prior to analysis 100 times.

[2] = dose injected into a rat; cited from earlier work
[3] = cited from earlier work

SMILES: CC(C)C[C@H](NC(=O)[C@H](C)NC(=O)[C@H](CC(C)C)NC(=O)[C@@H]1CCCN1C(=O)[C@H](CCC(N)=O)NC(=O)[C@H](CC(C)C)NC(=O)[C@H](CO)NC(=O)CNC(=O)[C@H](C)NC(=O)CNC(=O)[C@@H]1CCCN1C(=O)CNC(=O)CNC(=O)CNC(=O)[C@H](CC(C)C)NC(=O)[C@H](CCC(=O)O)NC(=O)[C@@H](NC(=O)[C@H](CCC(N)=O)NC(=O)CNC(=O)[C@@H](NC(=O)[C@H](CCC(N)=O)NC(=O)[C@H](CC(C)C)NC(=O)[C@H](CC(=O)O)NC(=O)[C@H](CCC(=O)O)NC(=O)[C@H](C)NC(=O)[C@@H](N)CCC(=O)O)C(C)C)C(C)C)C(=O)N[C@@H](CCC(=O)O)C(=O)NCC(=O)N[C@@H](CO)C(=O)N[C@@H](CC(C)C)C(=O)N[C@@H](CCC(N)=O)C(=O)O [C-peptide, proinsulin C-peptide]
- level at time molar [1]: < 1 nM
- time within which an injected dose has disappeared entirely from circulation [2]: 2 to 3 h
- in vivo half life circulating in blood [3]: approximately 30 minutes

— patent publication US8927489B2, “Sustained release preparation of pro-insulin C-peptide” (Cebix Incorporated, priority 2005, dated 2015)
